From ChEMBL document CHEMBL1201862, “PubChem BioAssay data set” (2004)
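Assay format: 96-well plates, 48-hour exposure. GI50 marks 50% less growth.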 Activity calls are given as the source filed them. Rule as the data show it: active = GI50 up to about 1.1 µM and inactive = higher.

Assays:
Test in all cases: inhibition of tumour cell growth, NCI panel, 48 h
UO-31 = tested on: UO-31
OVCAR-5 = tested on: OVCAR-5
HCC 2998 = tested on: HCC 2998
SR = tested on: SR
SK-MEL-2 = tested on: SK-MEL-2
786-0 = tested on: 786-0
A549 = tested on: A549
M14 = tested on: M14
COLO 205 = tested on: COLO 205
U-251 = tested on: U-251
SK-MEL-5 = tested on: SK-MEL-5
XF498 = tested on: XF498
RXF 631 = tested on: RXF 631
OVCAR-8 = tested on: OVCAR-8
OVCAR-3 = tested on: OVCAR-3
EKVX = tested on: EKVX
M19-MEL = tested on: M19-MEL
LXFL 529 = tested on: LXFL 529
CAKI-1 = tested on: CAKI-1
IGROV-1 = tested on: IGROV-1
SNB-19 = tested on: SNB-19
TK-10 = tested on: TK-10
SF-295 = tested on: SF-295
DMS-273 = tested on: DMS-273
SNB-78 = tested on: SNB-78
KM-20L2 = tested on: KM-20L2
CCRF-CEM = tested on: CCRF-CEM
ACHN = tested on: ACHN
HCT-15 = tested on: HCT-15
UACC-62 = tested on: UACC-62
SF-268 = tested on: SF-268
SK-MEL-28 = tested on: SK-MEL-28
SK-OV-3 = tested on: SK-OV-3
KM12 = tested on: KM12
SF-539 = tested on: SF-539
Malme-3M = tested on: Malme-3M
DLD-1 = tested on: DLD-1
NCI-H23 = tested on: NCI-H23
SW-620 = tested on: SW-620
RXF 393 = tested on: RXF 393
SN12C = tested on: SN12C
K562 = tested on: K562
MOLT-4 = tested on: MOLT-4
HOP-92 = tested on: HOP-92
OVCAR-4 = tested on: OVCAR-4
NCI-H522 = tested on: NCI-H522
HT-29 = tested on: HT-29
UACC-257 = tested on: UACC-257
HOP-62 = tested on: HOP-62
NCI-H226 = tested on: NCI-H226
A498 = tested on: A498
LOX IMVI = tested on: LOX IMVI
HL-60 = tested on: HL-60
NCI-H460 = tested on: NCI-H460

For `Nc1ccc(C(=O)N/C(=C\c2ccc3c(c2)OCO3)c2nc3ccccc3s2)cc1`, the GI50 (UO-31) was 15.6 µM (inactive), the GI50 (OVCAR-5) was 22 µM (inactive) and the GI50 (HCC 2998) was 14.8 µM (inactive). For the same compound, the GI50 (SR) was 6.01 µM (inactive), the GI50 (SK-MEL-2) was 14.8 µM (inactive) and the GI50 (786-0) was 11.6 µM (inactive). The GI50 (A549) was 15.5 µM (inactive), the GI50 (M14) was 11 µM (inactive) and the GI50 (COLO 205) was 18.4 µM (inactive). For the same compound, the GI50 (U-251) was 13.1 µM (inactive), the GI50 (SK-MEL-5) was 13.7 µM (inactive) and the GI50 (XF498) was 12.9 µM (inactive). For the same compound, the GI50 (RXF 631) was 5.79 µM (inactive), the GI50 (OVCAR-8) was 14.2 µM (inactive) and the GI50 (OVCAR-3) was 16.9 µM (inactive). The GI50 (EKVX) was 12.9 µM (inactive), the GI50 (M19-MEL) was 14.9 µM (inactive) and the GI50 (LXFL 529) was 10.6 µM (inactive). For the same compound, the GI50 (CAKI-1) was 15.9 µM (inactive), the GI50 (IGROV-1) was 14.6 µM (inactive) and the GI50 (SNB-19) was 15.2 µM (inactive). For the same compound, the GI50 (TK-10) was 19.8 µM (inactive), the GI50 (SF-295) was 16.7 µM (inactive) and the GI50 (DMS-273) was 16.8 µM (inactive). The GI50 (SNB-78) was 16.7 µM (inactive), the GI50 (KM-20L2) was 14.8 µM (inactive) and the GI50 (CCRF-CEM) was 1.89 µM (inactive). For the same compound, the GI50 (ACHN) was 14.2 µM (inactive), the GI50 (HCT-15) was 11.3 µM and the GI50 (UACC-62) was 14.4 µM (inactive). The GI50 (SF-268) was 11.9 µM (inactive), the GI50 (SK-MEL-28) was 13.2 µM (inactive) and the GI50 (SK-OV-3) was 21.3 µM (inactive). The GI50 (KM12) was 14.8 µM (inactive), the GI50 (SF-539) was 17.6 µM (inactive) and the GI50 (Malme-3M) was > 10 µM (inactive). The GI50 (DLD-1) was 13 µM (inactive), the GI50 (NCI-H23) was > 10 µM (inactive) and the GI50 (SW-620) was 11.5 µM (inactive). For the same compound, the GI50 (RXF 393) was 14.8 µM (inactive), the GI50 (SN12C) was 13 µM (inactive) and the GI50 (K562) was 5.38 µM (inactive). The GI50 (MOLT-4) was 2.79 µM (inactive), the GI50 (HOP-92) was 12.3 µM (inactive) and the GI50 (OVCAR-4) was 12.2 µM (inactive). The GI50 (NCI-H522) was 13.8 µM (inactive) and the GI50 (HT-29) was 12.6 µM (inactive).

For `CCOC(=O)N1CCC(=O)C(CNC23CC4CC(CC(C4)C2)C3)C1` (stereo unspecified), the GI50 (UO-31) was 51.5 µM (inactive), the GI50 (OVCAR-5) was > 100 µM (inactive) and the GI50 (UACC-257) was 23.9 µM (inactive). The GI50 (SR) was 21.7 µM (inactive), the GI50 (HOP-62) was > 100 µM (inactive) and the GI50 (SK-MEL-2) was > 100 µM (inactive). For the same compound, the GI50 (786-0) was 15.6 µM (inactive), the GI50 (A549) was > 100 µM (inactive) and the GI50 (COLO 205) was 37.4 µM (inactive). For the same compound, the GI50 (U-251) was > 100 µM (inactive), the GI50 (SK-MEL-5) was 80.2 µM (inactive) and the GI50 (XF498) was 18.1 µM (inactive). For the same compound, the GI50 (RXF 631) was > 100 µM (inactive), the GI50 (OVCAR-8) was 21.2 µM (inactive) and the GI50 (EKVX) was > 100 µM (inactive). For the same compound, the GI50 (M19-MEL) was 20.4 µM (inactive), the GI50 (LXFL 529) was 18.3 µM (inactive) and the GI50 (CAKI-1) was > 10 µM (inactive). The GI50 (SNB-19) was > 100 µM (inactive), the GI50 (TK-10) was > 100 µM (inactive) and the GI50 (SF-295) was > 100 µM (inactive). For the same compound, the GI50 (DMS-273) was 25.2 µM (inactive), the GI50 (SNB-78) was > 10 µM (inactive) and the GI50 (KM-20L2) was > 100 µM (inactive). The GI50 (CCRF-CEM) was 16.9 µM (inactive), the GI50 (ACHN) was 17.5 µM (inactive) and the GI50 (UACC-62) was > 100 µM (inactive). For the same compound, the GI50 (NCI-H226) was > 100 µM (inactive), the GI50 (A498) was > 100 µM (inactive) and the GI50 (SF-268) was > 100 µM (inactive). For the same compound, the GI50 (SK-MEL-28) was 18.2 µM (inactive), the GI50 (SK-OV-3) was > 100 µM (inactive) and the GI50 (LOX IMVI) was 19 µM (inactive). For the same compound, the GI50 (KM12) was > 100 µM (inactive), the GI50 (SF-539) was > 100 µM (inactive) and the GI50 (HL-60) was 22.2 µM (inactive). For the same compound, the GI50 (Malme-3M) was 17.7 µM (inactive), the GI50 (DLD-1) was 21.1 µM (inactive) and the GI50 (NCI-H23) was 61.4 µM (inactive). For the same compound, the GI50 (SW-620) was 19.8 µM (inactive), the GI50 (NCI-H460) was > 100 µM (inactive) and the GI50 (RXF 393) was 17.2 µM (inactive). The GI50 (SN12C) was > 100 µM (inactive), the GI50 (K562) was 13.1 µM (inactive) and the GI50 (MOLT-4) was 13.9 µM (inactive). The GI50 (HOP-92) was 20.7 µM (inactive), the GI50 (OVCAR-4) was 15.1 µM (inactive) and the GI50 (NCI-H522) was 16.7 µM (inactive). The GI50 (HT-29) was 22.4 µM (inactive).
